Laboratory results published in DBAASP.
Converted amounts (≈) assume the structure as drawn. “And” between values parts separate entries of the source, which are not always exact repeats. Identical values can stand only once.

Legend:
Experiment in all cases: ≥ marks a high value that may be exact or a test limit, other limits are often not marked, values filed in µg/mL are converted to µM
[1] = test system: Bacillus megaterium IBMC
[2] = test system: Corynebacterium stationis CIP 101282
[3] = test system: Escherichia coli SBS 363
[4] = test system: Fusarium oxysporum
[5] = test system: Microbacterium maritypicum CIP 105733T
[6] = test system: Micrococcus luteus A270
[7] = test system: Staphylococcus aureus SG511
[8] = test system: Vibrio aestuarianus CIP 109791
[9] = test system: Vibrio coralliilyticus YB1 CIP 107925
[10] = test system: Vibrio splendidus CIP 107715
[11] = test system: Bacillus subtilis IFO 3143
[12] = test system: Escherichia coli IFO 12734
[13] = test system: Pseudomonas aeruginosa IFO 12582
[14] = test system: Staphylococcus aureus IFO 12732
[15] = test system: Bacillus cereus ATCC 9193
[16] = test system: Campylobacter jejuni ATCC 33291
[17] = test system: Candida albicans
[18] = test system: Clostridium perfringens ATCC 12915
[19] = test system: Pseudomonas aeruginosa ATCC 27853
[20] = test system: Saccharomyces cerevisiae
[21] = test system: Salmonella enterica subsp. enterica serovar Typhimurium ATCC 14028
[22] = test system: Staphylococcus aureus ATCC 29213
[23] = test system: Streptococcus pyogenes ATCC 19615
[24] = test system: Aspergillus flavus KCTC 7375
[25] = test system: Bacillus megaterium KCTC 1096
[26] = test system: Bacillus subtilis KCTC 1918
[27] = test system: Candida albicans KCTC 7121
[28] = test system: Escherichia coli KCTC 1682
[29] = test system: Fusarium oxysporum KCTC 6084
[30] = test system: Proteus vulgaris
[31] = test system: Pseudomonas aeruginosa KCTC 1637
[32] = test system: Staphylococcus aureus KCTC 1621
[33] = test system: Trichosporon beigelii KCTC 7251

## CC[C@H](C)[C@@H]1NC(=O)CNC(=O)[C@H](CCCCN)NC(=O)[C@H](CCCCN)NC(=O)[C@H](CC(=O)O)NC(=O)[C@@H]2CSSC[C@@H]3NC(=O)[C@H](CO)NC(=O)[C@H](Cc4ccc(O)cc4)NC(=O)[C@H](CO)NC(=O)[C@H](CSSC[C@H](NC(=O)[C@H](Cc4ccccc4)NC(=O)[C@H]([C@@H](C)O)NC(=O)[C@H](CCCCN)NC(=O)CNC(=O)[C@H](CCCN=C(N)N)NC(=O)[C@H](CC(C)C)NC(=O)[C@H](CC(=O)O)NC(=O)[C@H](C)NC(=O)[C@@H](NC(=O)[C@H](C)N)CSSC[C@@H](C(=O)N[C@@H](CCCN=C(N)N)C(N)=O)NC(=O)CNC3=O)C(=O)N[C@@H](CCCN=C(N)N)C(=O)N[C@@H](CC(C)C)C(=O)N[C@@H](Cc3ccccc3)C(=O)N[C@@H](CCCCN)C(=O)N[C@@H](CO)C(=O)N[C@@H](Cc3ccc(O)cc3)C(=O)N2)NC(=O)[C@H](CCCCN)NC(=O)[C@H](CC(=O)O)NC(=O)[C@H](CCCN=C(N)N)NC(=O)[C@H](CCSC)NC(=O)[C@H](CC(C)C)NC(=O)[C@H](CCCN=C(N)N)NC(=O)CNC(=O)[C@H](CCCN=C(N)N)NC1=O [ACADLRGKTFCRLFKSYCDKKGIRGRLMRDKCSYSCGCR]
[1]
  MIC: 20 µM (≈ 89.8 µg/mL)
[2]
  MIC: 10 µM (≈ 44.9 µg/mL)
[3]
  MIC: 10 µM (≈ 44.9 µg/mL)
[4]
  MIC: 1.25 µM (≈ 5.61 µg/mL)
[5]
  MIC: 20 µM (≈ 89.8 µg/mL)
[6]
  MIC: 1.25 µM (≈ 5.61 µg/mL)
[7]
  MIC: 5 µM (≈ 22.5 µg/mL)
[8]
  MIC: 20 µM (≈ 89.8 µg/mL)
[9]
  MIC: 20 µM (≈ 89.8 µg/mL)
[10]
  MIC: 20 µM (≈ 89.8 µg/mL)

## CC(C)C[C@H](NC(=O)[C@H](Cc1ccc(O)cc1)NC(=O)[C@H](Cc1cnc[nH]1)NC(=O)[C@@H](NC(=O)[C@H](CC(C)C)NC(=O)[C@H](C)NC(=O)[C@H](C)NC(=O)[C@H](CCCCN)NC(=O)[C@H](C)NC(=O)[C@@H](NC(=O)[C@H](Cc1cnc[nH]1)NC(=O)[C@H](CCCCN)NC(=O)[C@H](C)NC(=O)[C@@H](NC(=O)[C@H](Cc1cnc[nH]1)NC(=O)[C@H](C)NC(=O)[C@H](C)NC(=O)[C@H](CCCCN)NC(=O)[C@H](CCCCN)NC(=O)[C@H](Cc1ccccc1)NC(=O)[C@H](Cc1ccccc1)NC(=O)[C@H](CO)NC(=O)[C@H](C)NC(=O)[C@H](Cc1c[nH]c2ccccc12)NC(=O)[C@H](C)N)C(C)C)C(C)C)[C@@H](C)O)C(=O)O [AWASFFKKAAHVAKHVAKAALTHYL]
[11]
  MIC: 0.723 µM (≈ 2 µg/mL)
[12]
  MIC: 0.723 µM (≈ 2 µg/mL)
[13]
  MIC: 1.45 µM (≈ 4 µg/mL)
[14]
  MIC: 0.723 µM (≈ 2 µg/mL)

## CC[C@H](C)[C@@H]1NC(=O)[C@H](CC(=O)O)NC(=O)[C@H](C(C)C)NC(=O)[C@H](CO)NC(=O)[C@@H]2CCCN2C(=O)[C@H](C)NC(=O)[C@H](CCCN=C(N)N)NC(=O)[C@@H]2CSSC[C@@H](C(=O)N[C@@H](CCCCN)C(=O)N[C@@H](Cc3c[nH]c4ccccc34)C(=O)N[C@@H](C)C(=O)N3CCC[C@H]3C(=O)N[C@@H](CO)C(=O)N[C@@H](CO)C(=O)O)NC(=O)[C@@H]3CSSC[C@H](NC(=O)[C@H](C)NC(=O)[C@H](CC(C)C)NC(=O)[C@@H](NC(=O)[C@@H](N)CC(=O)O)[C@@H](C)O)C(=O)N[C@@H](CCCN=C(N)N)C(=O)N[C@@H](CCC(N)=O)C(=O)N[C@@H](CO)C(=O)N[C@@H](Cc4cnc[nH]4)C(=O)NCC(=O)N[C@@H](CO)C(=O)N[C@@H](CSSC[C@H](NC(=O)[C@H]([C@@H](C)O)NC(=O)CNC1=O)C(=O)N[C@@H](CCCN=C(N)N)C(=O)NCC(=O)NCC(=O)N[C@@H](CCCCN)C(=O)N[C@@H](CC(C)C)C(=O)N[C@@H](CCCCN)C(=O)N3)C(=O)N[C@@H](CO)C(=O)N[C@@H](Cc1ccccc1)C(=O)N[C@@H](C(C)C)C(=O)N[C@@H](C)C(=O)N2 [DTLACRQSHGSCSFVACRAPSVDIGTCRGGKLKCCKWAPSS]
[15]
  MIC: 29.9 µM (≈ 128 µg/mL)
[16]
  MIC: 14.9 µM (≈ 63.9 µg/mL)
[17]
  MIC: 1.87 µM (≈ 7.99 µg/mL)
[18]
  MIC: 1.87 µM (≈ 7.99 µg/mL)
[19]
  MIC: > 29.9 µM
[20]
  MIC: 1.87 µM (≈ 7.99 µg/mL)
[21]
  MIC: > 29.9 µM and 59.7 µM
[22]
  MIC: > 29.9 µM and 59.7 µM
[23]
  MIC: 14.9 µM (≈ 63.9 µg/mL)

## CC[C@H](C)[C@H](NC(=O)[C@H](CCCCN)NC(=O)[C@H](CCCCN)NC(=O)[C@H](Cc1ccccc1)NC(=O)[C@H](CC(C)C)NC(=O)[C@H](CCCCN)NC(=O)[C@H](Cc1c[nH]c2ccccc12)NC(=O)[C@@H](N)CCCCN)C(=O)N1CCC[C@H]1C(=O)N[C@@H](CCCCN)C(=O)N[C@@H](Cc1ccccc1)C(=O)N[C@@H](CC(C)C)C(=O)N[C@@H](Cc1cnc[nH]1)C(=O)N[C@@H](CC(C)C)C(N)=O [KWKLFKKIPKFLHL]
[24]
  MIC: ≥ 100 µM
[25]
  MIC: 3.12 µM (≈ 5.7 µg/mL)
[26]
  MIC: 1.56 µM (≈ 2.85 µg/mL)
[27]
  MIC: ≥ 100 µM
[28]
  MIC: 6.25 µM (≈ 11.4 µg/mL)
[29]
  MIC: ≥ 100 µM
[30]
  MIC: 3.12 µM (≈ 5.7 µg/mL)
[31]
  MIC: 6.25 µM (≈ 11.4 µg/mL)
[32]
  MIC: 6.25 µM (≈ 11.4 µg/mL)
[33]
  MIC: ≥ 100 µM
